Assay results from patent publication US10039759B2, “Quinolines as FGFR kinase modulators” (priority 2011, dated 2018).
Where a name gives a salt, the structure may show the parent alone.

Experiments:
FGFR2 (h) = FGFR2 (h) (Homo sapiens, UniProt P21802); assay: FGFR2 (enzymatic assay), TR-FRET; format: biochemical; conditions: 0.4 μM ATP, 60 min; pIC50 = -log IC50 (M); average if tested multiple times; read-out: FGFR 2 pIC50 (converted)
FGFR3 (h) = FGFR3 (h) (Homo sapiens, UniProt P22607); assay: FGFR3 (enzymatic assay), TR-FRET; format: biochemical; conditions: 25 μM ATP, 60 min; pIC50 = -log IC50 (M); average if tested multiple times; read-out: hFGFR 3 pIC50 (converted)
FGFR4 (h) = FGFR4 (h) (Homo sapiens, UniProt P22455); assay: FGFR4 (enzymatic assay), TR-FRET; format: biochemical; conditions: FGFR 4 pIC50, 5 μM ATP, 60 min; pIC50 = -log IC50 (M); average if tested multiple times
FGFR4 (h), sequence (P22455 22-802): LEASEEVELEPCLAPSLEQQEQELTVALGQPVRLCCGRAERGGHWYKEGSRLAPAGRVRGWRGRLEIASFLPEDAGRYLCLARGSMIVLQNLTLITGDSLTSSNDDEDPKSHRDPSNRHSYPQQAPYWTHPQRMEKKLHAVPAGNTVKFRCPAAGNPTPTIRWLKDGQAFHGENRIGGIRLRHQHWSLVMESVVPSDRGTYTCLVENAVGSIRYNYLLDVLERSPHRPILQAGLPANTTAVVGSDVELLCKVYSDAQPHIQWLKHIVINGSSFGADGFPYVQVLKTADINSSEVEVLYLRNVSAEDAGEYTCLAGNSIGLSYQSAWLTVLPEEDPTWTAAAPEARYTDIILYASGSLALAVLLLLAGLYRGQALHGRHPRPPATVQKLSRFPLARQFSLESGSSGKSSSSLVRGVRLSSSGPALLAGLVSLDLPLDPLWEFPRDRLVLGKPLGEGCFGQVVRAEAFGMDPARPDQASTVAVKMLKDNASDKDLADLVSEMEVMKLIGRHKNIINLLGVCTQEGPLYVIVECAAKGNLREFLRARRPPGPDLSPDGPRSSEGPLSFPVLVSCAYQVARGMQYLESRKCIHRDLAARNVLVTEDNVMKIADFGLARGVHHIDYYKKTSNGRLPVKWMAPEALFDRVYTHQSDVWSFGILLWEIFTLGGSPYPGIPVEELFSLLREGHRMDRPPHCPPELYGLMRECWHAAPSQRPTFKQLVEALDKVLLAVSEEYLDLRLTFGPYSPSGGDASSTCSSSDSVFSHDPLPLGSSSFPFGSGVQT

KDR (h) = KDR (h) (Homo sapiens, UniProt P35968); assay: KDR (VEGFR2) (enzymatic assay), TR-FRET; format: biochemical; conditions: 3 μM ATP, 120 min; pIC50 = -log IC50 (M); average if tested multiple times; read-out: VEGFR KDR pIC50 (converted)
Experimental: KDR (VEGFR2) (Enzymatic Assay)
In a final reaction volume of 30 μL, KDR (h) (150 ng/ml) was incubated with 50 mM HEPES pH 7.5, 6 mM MnCl2, 1 mM DTT, 0.1 mM Na3VO4, 0.01% Triton-X-100, 500 nM Btn-Flt3 and 3 μM ATP in the presence of compound (1% DMSO final). After incubation for 120 minutes at room temperature the reaction was stopped with 2.27 nM EU-anti P-Tyr, 7 mM EDTA, 31.25 nM SA-XL-665 and 0.02% BSA which was present for 60 minutes at room temperature. Time-Resolved Fluorescence Resonance Energy Transfer (TR-FRET) signal (ex340 nm. Em 620 nm, em 655 nm) was measured afterwards and results are expressed in RFU (Relative Fluorescence Units). In this assay, the inhibitory effect of different compound concentrations (range 10 μM to 0.1 nM) was determined and used to calculate an IC50 (M) and pIC50 (−log IC50) value.

[1] = target: T1, Ba/F3-FGFR1-transfected cells (Homo sapiens, UniProt P11362, cells depend on it, form not given); assay: Ba/F3-FGFR1 (minus IL3 or plus IL3) cellular proliferation assay, Alamar Blue; format: cell-based; conditions: minus IL3, 24 hours
T1 construct: other: minus IL3; 24 hours, Alamar Blue
T1 sequence (P11362 whole entry, change not shown): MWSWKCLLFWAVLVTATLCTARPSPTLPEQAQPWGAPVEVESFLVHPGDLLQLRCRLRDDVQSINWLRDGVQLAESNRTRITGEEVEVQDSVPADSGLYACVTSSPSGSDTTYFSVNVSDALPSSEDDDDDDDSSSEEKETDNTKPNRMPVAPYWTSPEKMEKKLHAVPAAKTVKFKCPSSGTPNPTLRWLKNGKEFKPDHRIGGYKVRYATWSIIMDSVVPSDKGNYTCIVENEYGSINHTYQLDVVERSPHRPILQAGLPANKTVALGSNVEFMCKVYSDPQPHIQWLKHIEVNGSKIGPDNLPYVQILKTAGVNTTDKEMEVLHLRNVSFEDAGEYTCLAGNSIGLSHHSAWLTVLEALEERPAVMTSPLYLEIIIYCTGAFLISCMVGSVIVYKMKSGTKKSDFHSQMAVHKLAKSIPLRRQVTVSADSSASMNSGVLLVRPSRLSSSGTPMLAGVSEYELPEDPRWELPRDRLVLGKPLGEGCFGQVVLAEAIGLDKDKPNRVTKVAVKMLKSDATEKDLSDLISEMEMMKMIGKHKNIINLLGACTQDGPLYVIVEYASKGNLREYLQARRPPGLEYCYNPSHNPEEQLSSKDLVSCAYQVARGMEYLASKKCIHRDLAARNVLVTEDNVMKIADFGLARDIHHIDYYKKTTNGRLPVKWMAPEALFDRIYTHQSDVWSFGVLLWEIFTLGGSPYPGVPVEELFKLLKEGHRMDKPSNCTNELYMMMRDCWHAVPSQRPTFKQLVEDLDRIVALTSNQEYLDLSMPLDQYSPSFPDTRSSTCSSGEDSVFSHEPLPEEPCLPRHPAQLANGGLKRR
Experimental: Ba/F3-FGFR1 (Minus IL3 or Plus IL3) (Cellular Proliferation Assay)
(§1) In a 384 well plate, 100 nl of compound dilution in DMSO was sprayed before adding 50 μl cell culture medium (phenol red free RPMI-1640, 10% FBS, 2 mM L-Glutamine and 50 μg/ml Gentamycin) containing 20000 cells per well of Ba/F3-FGFR1-transfected cells. Cells were put in an incubator at 37° C. and 5% CO2. After 24 hours, 10 μl of Alamar Blue solution (0.5 mM K3Fe(CN)6, 0.5 mM K4Fe(CN)6, 0.15 mM Resazurin and 100 mM Phosphate Buffer) was added to the wells, incubated for 4 hours at 37° C. and 5% CO2 before RFU's (Relative Fluorescence Units) (ex. 540 nm., em. 590 nm.) were measured in a fluorescence plate reader.
(§2) In this assay, the inhibitory effect of different compound concentrations (range 10 μM to 0.1 nM) was determined and used to calculate an IC50 (M) and pIC50 (−log IC50) value. As a counterscreen the same experiment was performed in the presence of 10 ng/ml murine IL3.

[2] = target: T2, Ba/F3-FGFR3-transfected cells (Homo sapiens, UniProt P22607, cells depend on it, form not given); assay: Ba/F3-FGFR3 (minus IL3 or plus IL3) cellular proliferation assay, Alamar Blue; format: cell-based; conditions: minus IL3; 24 hours, Alamar Blue
T2 construct: BAF3-FGFR3 (MIN IL3 Alamar Blue- pIC50); other: minus IL3; 24 hours, Alamar Blue
T2 sequence (P22607 whole entry, change not shown): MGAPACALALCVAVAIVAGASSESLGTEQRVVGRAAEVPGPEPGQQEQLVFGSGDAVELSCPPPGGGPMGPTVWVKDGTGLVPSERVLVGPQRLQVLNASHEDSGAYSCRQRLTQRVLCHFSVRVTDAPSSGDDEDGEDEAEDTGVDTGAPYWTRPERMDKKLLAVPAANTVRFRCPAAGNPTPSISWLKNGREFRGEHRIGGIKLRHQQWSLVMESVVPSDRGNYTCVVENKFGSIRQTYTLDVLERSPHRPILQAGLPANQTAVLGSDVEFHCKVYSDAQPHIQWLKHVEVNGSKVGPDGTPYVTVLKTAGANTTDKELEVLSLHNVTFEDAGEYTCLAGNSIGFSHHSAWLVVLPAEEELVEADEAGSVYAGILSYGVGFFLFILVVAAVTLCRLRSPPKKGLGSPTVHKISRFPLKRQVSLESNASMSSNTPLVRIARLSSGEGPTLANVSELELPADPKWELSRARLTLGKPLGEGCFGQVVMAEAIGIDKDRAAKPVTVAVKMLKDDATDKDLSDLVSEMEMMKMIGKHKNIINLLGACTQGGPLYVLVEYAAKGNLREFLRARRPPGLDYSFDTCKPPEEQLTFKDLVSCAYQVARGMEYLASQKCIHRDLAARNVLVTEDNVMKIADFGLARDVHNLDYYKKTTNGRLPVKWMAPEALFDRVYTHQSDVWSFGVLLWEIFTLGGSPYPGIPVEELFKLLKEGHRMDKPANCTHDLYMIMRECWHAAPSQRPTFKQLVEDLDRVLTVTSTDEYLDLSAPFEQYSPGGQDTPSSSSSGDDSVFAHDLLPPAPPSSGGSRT
Experimental: (§3) Ba/F3-FGFR3 (Minus IL3 or Plus IL3) (Cellular Proliferation Assay)
as §1, with “Ba/F3-FGFR3-transfected” for “Ba/F3-FGFR1-transfected”
as §2

[3] = test system: Ba/F3-FGFR3-transfected cells; assay: as above; format: cell-based; conditions: plus IL3 (10 ng/ml murine IL3, counterscreen); 24 hours, Alamar Blue; read-out: BAF3-FGFR3 (PLUS IL3 Alamar Blue pIC50) (converted)
Experimental: as §3
as §1, with “Ba/F3-FGFR3-transfected” for “Ba/F3-FGFR1-transfected”
as §2

[4] = target: T3, Ba/F3-KDR-transfected cells (Homo sapiens, UniProt P35968, cells depend on it, form not given); assay: Ba/F3-KDR (minus IL3 or plus IL3) cellular proliferation assay, Alamar Blue; format: cell-based; conditions: minus IL3; 24 hours, Alamar Blue
T3 construct: BAF3-KDR (MIN IL3 Alamar Blue pIC50); other: minus IL3; 24 hours, Alamar Blue
Experimental: (§4) Ba/F3-KDR (Minus IL3 or Plus IL3) (Cellular Proliferation Assay)
as §1, with “Ba/F3-KDR-transfected” for “Ba/F3-FGFR1-transfected”
as §2

[5] = test system: Ba/F3-KDR-transfected cells; assay: as above; format: cell-based; conditions: plus IL3 (10 ng/ml murine IL3, counterscreen); 24 hours, Alamar Blue; read-out: BAF3-KDR (PLUS IL3 Alamar Blue pIC50) (converted)
Experimental: as §4
as §1, with “Ba/F3-KDR-transfected” for “Ba/F3-FGFR1-transfected”
as §2

[6] = target: Ba/F3-FGFR4-transfected cells (Homo sapiens, UniProt P22455); assay: Ba/F3-FGFR4 cellular proliferation assay, Alamar Blue; format: cell-based; conditions: 24 hours
Ba/F3-FGFR4-transfected cells, sequence (P22455 whole entry, change not shown): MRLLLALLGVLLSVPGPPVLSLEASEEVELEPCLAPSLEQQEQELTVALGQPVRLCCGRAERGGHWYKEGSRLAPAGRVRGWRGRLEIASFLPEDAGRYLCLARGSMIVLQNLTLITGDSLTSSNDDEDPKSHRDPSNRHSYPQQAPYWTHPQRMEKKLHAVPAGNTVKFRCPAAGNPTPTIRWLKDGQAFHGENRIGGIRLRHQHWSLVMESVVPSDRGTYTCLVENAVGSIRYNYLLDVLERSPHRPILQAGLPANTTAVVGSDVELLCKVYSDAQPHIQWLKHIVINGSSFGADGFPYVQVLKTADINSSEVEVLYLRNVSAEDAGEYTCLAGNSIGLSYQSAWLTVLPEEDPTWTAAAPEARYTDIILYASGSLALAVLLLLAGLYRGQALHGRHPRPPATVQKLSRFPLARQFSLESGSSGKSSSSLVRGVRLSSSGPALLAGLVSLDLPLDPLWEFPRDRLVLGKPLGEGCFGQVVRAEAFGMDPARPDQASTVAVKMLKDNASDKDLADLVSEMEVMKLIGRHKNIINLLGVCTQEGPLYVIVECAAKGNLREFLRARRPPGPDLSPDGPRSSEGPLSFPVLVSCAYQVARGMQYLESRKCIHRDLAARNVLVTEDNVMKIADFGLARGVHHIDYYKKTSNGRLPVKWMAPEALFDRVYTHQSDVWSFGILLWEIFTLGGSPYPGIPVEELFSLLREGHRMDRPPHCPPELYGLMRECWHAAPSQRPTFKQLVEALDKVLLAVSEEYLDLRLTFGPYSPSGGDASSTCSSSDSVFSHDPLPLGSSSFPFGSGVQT
Experimental: Ba/F3-FGFR4 (Cellular Proliferation Assay)
as §1, with “Ba/F3-FGFR4-transfected” for “Ba/F3-FGFR1-transfected”
In this assay, the inhibitory effect of different compound concentrations (range 10 μM to 0.1 nM) was determined and used to calculate an IC50 (M) and pIC50 (−log IC50) value.

FGFR1 (h) = FGFR1 (h) (Homo sapiens, UniProt P11362); assay: FGFR1 (enzymatic assay), TR-FRET; format: biochemical; conditions: FGFR 1 pIC50, 5 μM ATP, 60 min; pIC50 = -log IC50 (M); average if tested multiple times
FGFR1 (h), sequence (P11362 22-822): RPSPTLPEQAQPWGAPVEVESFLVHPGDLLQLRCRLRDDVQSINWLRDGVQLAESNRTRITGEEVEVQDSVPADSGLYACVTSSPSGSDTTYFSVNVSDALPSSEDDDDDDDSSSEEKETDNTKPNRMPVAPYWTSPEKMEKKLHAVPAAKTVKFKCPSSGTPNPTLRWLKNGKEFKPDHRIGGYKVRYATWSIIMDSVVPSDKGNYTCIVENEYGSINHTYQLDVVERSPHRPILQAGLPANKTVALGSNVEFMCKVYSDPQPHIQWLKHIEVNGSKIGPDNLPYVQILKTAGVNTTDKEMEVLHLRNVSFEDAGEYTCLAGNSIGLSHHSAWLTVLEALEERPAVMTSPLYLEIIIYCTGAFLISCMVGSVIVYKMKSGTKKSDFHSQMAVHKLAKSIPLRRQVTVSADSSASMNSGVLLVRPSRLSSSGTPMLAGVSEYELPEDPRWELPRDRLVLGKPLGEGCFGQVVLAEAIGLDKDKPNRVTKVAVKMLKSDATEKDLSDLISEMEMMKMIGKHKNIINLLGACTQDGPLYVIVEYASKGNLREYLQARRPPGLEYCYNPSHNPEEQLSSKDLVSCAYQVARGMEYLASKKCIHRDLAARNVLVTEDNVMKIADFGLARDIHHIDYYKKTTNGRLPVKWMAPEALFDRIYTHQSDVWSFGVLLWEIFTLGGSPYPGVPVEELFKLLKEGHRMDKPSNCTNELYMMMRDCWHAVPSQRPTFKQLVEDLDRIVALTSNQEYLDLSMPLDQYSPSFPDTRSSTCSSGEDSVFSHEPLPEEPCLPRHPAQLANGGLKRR

FGFR2 (h), sequence (P21802 22-821): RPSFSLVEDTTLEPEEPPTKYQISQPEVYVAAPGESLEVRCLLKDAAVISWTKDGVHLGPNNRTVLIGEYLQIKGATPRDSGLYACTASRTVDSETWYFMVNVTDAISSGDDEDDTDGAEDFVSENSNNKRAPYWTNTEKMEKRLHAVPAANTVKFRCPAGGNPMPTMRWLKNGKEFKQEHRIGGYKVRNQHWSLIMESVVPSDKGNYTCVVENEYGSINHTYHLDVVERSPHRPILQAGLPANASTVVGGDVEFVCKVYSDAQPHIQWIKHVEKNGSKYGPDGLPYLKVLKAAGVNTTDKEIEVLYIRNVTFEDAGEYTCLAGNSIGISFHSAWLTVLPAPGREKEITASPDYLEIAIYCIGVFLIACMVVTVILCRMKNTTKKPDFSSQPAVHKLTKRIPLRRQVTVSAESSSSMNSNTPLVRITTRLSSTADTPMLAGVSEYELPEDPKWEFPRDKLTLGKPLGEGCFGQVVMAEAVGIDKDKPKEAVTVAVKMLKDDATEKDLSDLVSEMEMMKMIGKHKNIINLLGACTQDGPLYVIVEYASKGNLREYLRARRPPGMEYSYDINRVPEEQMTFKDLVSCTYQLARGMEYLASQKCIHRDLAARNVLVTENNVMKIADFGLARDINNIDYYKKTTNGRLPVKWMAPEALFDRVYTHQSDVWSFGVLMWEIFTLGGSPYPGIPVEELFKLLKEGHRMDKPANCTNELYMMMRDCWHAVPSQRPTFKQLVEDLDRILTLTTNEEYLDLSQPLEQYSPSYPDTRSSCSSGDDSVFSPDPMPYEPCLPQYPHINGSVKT

Row | SMILES | IC50 (FGFR2 (h)) [M] | IC50 (FGFR3 (h)) [M] | IC50 (FGFR4 (h)) [M] | IC50 (KDR (h)) [M] | BAF3-FGFR1 (MIN IL3 pIC50) [1] | BAF3-FGFR3 (MIN IL3 Alamar Blue- pIC50) [2] | BAF3-KDR (MIN IL3 Alamar Blue pIC50) [4] | BAF3-FGFR 4 (pIC50) [6] | melting point [°C] | IC50 (FGFR1 (h)) [M] | IC50 [3] [µM] | IC50 [5] [µM]
1 | COc1cc(OC)cc(N(CCO)c2ccc3ncc(-c4ccn(C)c4)cc3c2)c1 [Compound 61] | ~1.26e-08 | 2.69e-09 | 2.09e-08 | 1.91e-07 | 6.02 | 5.84 | 5.40 | 5.66 | 158 | – | > 10 | > 10
2 | COc1cc(OC)cc(N(CCCN2CCCC2=O)c2ccc3ncc(-c4cnn(C)c4)cc3c2)c1 (as salt: HCl) (hydrate or solvate) [Compound 10] | – | – | – | – | – | – | – | – | 142 | – | – | –
3 | COc1cc(OC)cc(N(Cc2ncc[nH]2)c2ccc3ncc(-c4ccccc4)cc3c2)c1 [Compound 52] | 6.61e-09 | 8.51e-09 | 1.66e-08 | 9.33e-07 | 5.77 | 6.00 | <5 | 5.48 | 133 | 1.58e-08 | – | –
4 | COc1cc(OC)cc(N(CCO)c2ccc3ncc(-c4ccccc4)cc3c2)c1 [Compound 50] | 5.5e-08 | 5.75e-08 | 2.57e-07 | > 1e-06 | 5.11 | 5.19 | <5 | <5 | 111 | 6.92e-08 | > 10 | > 10
5 | CNCCN(c1ccc2ncc(-c3cnn(C)c3)cc2c1)c1c(F)c(OC)cc(OC)c1F (as salt: HCl) [Compound 43] | – | – | – | – | – | – | – | – | 180 | – | – | –
6 | COc1cc(OC)c(F)c(N(CCNC(C)C)c2ccc3ncc(-c4cnn(C)c4)cc3c2)c1F [Compound 42] | 3.16e-09 | 3.39e-09 | 2.88e-09 | 1.58e-08 | 8.95 | 8.25 | 6.95 | 8.25 | 75 | 1.15e-09 | > 10 | > 10
7 | COc1cc(OC)cc(N(Cc2ncc[nH]2)c2ccc3ncc(C4CCNCC4)cc3c2)c1 [Compound 48a] | 1.7e-07 | 4.17e-07 | 8.32e-07 | > 1e-06 | <5 | <5 | <5 | <5 | – | 2.95e-07 | > 10 | > 10

Further lines, with some results ahead:

Row | IC50 (FGFR2 (h)) [M] | IC50 (FGFR3 (h)) [M] | IC50 (FGFR4 (h)) [M] | IC50 (KDR (h)) [M] | BAF3-FGFR1 (MIN IL3 pIC50) [1] | BAF3-FGFR3 (MIN IL3 Alamar Blue- pIC50) [2] | BAF3-KDR (MIN IL3 Alamar Blue pIC50) [4] | BAF3-FGFR 4 (pIC50) [6] | melting point [°C] | IC50 (FGFR1 (h)) [M] | SMILES | IC50 [3] [µM] | IC50 [5] [µM]
8 | 1.86e-07 | 2.14e-08 | 4.17e-07 | > 1e-06 | 5.01 | 5.16 | <5 | <5 | 131 | – | COc1cc(OC)cc(C(CCO)c2ccc3ncc(-c4cnn(C)c4)cc3c2)c1 (stereo not shown) [Compound 34] | > 10 | > 10
9 | – | – | – | – | – | – | – | – | 86 to 115 | – | COc1cc(OC)cc(N(CCNC(C)C)c2ccc3ncc(-c4cnn(CCO)c4)cc3c2)c1 (as salt: HCl) (hydrate or solvate) [Compound 13] | – | –
10 | – | – | – | – | – | – | – | – | > 300 | – | COc1cc(OC)cc(C(CCNC(C)C)c2ccc3ncc(-c4cnn(C)c4)cc3c2)c1 (stereo not shown) (as salt: HCl) [Compound 41] | – | –
11 | – | – | – | – | – | – | – | – | 120 | – | C#CCN(c1ccc2ncc(-c3cnn(C)c3)cc2c1)c1cc(OC)cc(OC)c1F | – | –
12 | 2.82e-07 | 1.78e-07 | > 1e-06 | > 1e-06 | 5.09 | <5 | <5 | <5 | 172 | – | COc1cc(OC)cc(C(CC#N)c2ccc3ncc(-c4cnn(C)c4)cc3c2)c1 (stereo not shown) [Compound 39] | > 10 | > 10
13 | ~6.76e-08 | 4.57e-08 | – | 5.62e-07 | 5.45 | 5.29 | 5.15 | <5 | 86 | – | COc1cc(OC)cc(/C(=C/C#N)c2ccc3ncc(-c4cnn(C)c4)cc3c2)c1 [Compound 29] | – | –
